Experimental findings from patent US9284283B2, “Macrocyclic compounds for modulating IL-17” (ENSEMBLE THERAPEUTICS CORPORATION, priority 2012, dated 2016) are described below.

Some results are limits rather than exact numbers.

This experiment concerns the target T1, biotinylated human IL-17 (binding to IL17R/Fc) (Homo sapiens, UniProt Q16552).
T1 construct: purchased R&D Systems 317-ILB (IL-17, biotinylated); 177-IR (IL17R/Fc)
T1 sequence (Q16552 20-155 limits assumed): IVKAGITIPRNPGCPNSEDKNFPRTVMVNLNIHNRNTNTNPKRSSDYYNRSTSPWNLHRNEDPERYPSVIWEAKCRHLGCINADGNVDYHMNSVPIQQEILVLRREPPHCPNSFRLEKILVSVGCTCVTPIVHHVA
Put plainly: IL-17 competition ELISA II (captured IL17R/Fc, biotinylated IL-17). How it is done:
In this version, a high binding 96-well plate (Costar #9018) was coated with 20 nM of goat anti-human IgG (KPL 01-10-02) in PBS, 100 μL/well, for 30 min at 37° C. followed by 5 min at 4° C. The plate was then washed in PBST (PBS/0.05% Tween-20) on a plate washer, (BioTek ELx450) then blocked with protein-free blocking buffer (Thermo Scientific #37573) in 250 μL/well for 30 min on a shaker at room temperature, and then washed again. IL17R/Fc (R&D Systems #177-IR; 10 nM in PBST, 100 μL/well) was then added to all wells. The plate was then incubated for 30 minutes at room temperature on the shaker.
While the receptor capture step was underway, compound dilutions were prepared in PBST to a concentration of 1 μM in 1.5 mL tubes. After the receptor capture step, the plate was washed and 50 μL PBST was added to the wells in row B down to row H. Then, 62.5 μL of the 1 μM compound dilutions were added to the wells of row A. From row A, 12.5 μL of the compound solution was removed and added to row B with mixing and this process of 5-fold dilutions was continued, by row, to row G. One of the wells in row A received only PBST (62.5 μL) and this dilution series served as the no competitor control. Then, going up from row G to row A, 50 μL of b-IL-17 (biotinylated human IL-17, R&D Systems #317-ILB; 20 nM) was added to all wells. Row H received 50 μL of PBST and served as the blank row, i.e., no compound and no b-IL-17. The plate was then incubated for 30 minutes at room temperature on the shaker.
After the wash, 100 μL Streptavidin-Horseradish Peroxidase (SA-HRP) (KPL #14-30-00) at 25 ng/mL in PBST was added to each well in the plate and the plate incubated for 30 minutes at room temperature followed by wash and 100 μL SureBlue™ TMB (KPL #52-00-03). After sufficient color development (approx 3-6 minutes), the reaction was fixed by the addition of 100 μL/well 0.5 N HCl and absorbance was measured at 450 nm on a BioTek Synergy 2 plate reader. The absorbances of ‘no competitor’ control and blank control should not exceed 1.5 A.U. and 0.06 A.U., respectively.
Data was processed using BioAssay Enterprise v10.1.4 (CambridgeSoft) software. Linear OD λ450 were plotted against log concentration (x) and fitted to a 4-parameter logistic equation. IC50 was calculated using positive ‘no competitor’ control data as an upper limit and blank control as a lower limit in each assay.
For orientation: An ELISA detects its analyte on a solid surface through an enzyme-linked reagent.
In general, IC50 refers to the concentration at which inhibition is half-maximal. Consider `O=C1CC2(CCCC2)CC(=O)N[C@H](Cc2ccc(NC(=O)[C@H](Cc3ccccc3Cl)NC(=O)Cc3ccc(F)cc3)cc2)C(=O)N[C@H](Cc2ccccn2)C(=O)NCCCCCN1` [Compound 435], for which the concentration for half-maximal inhibition (IC50) was under 100 nM.

As to `O=C1CC2(CCCC2)CC(=O)N[C@H](Cc2ccc(NC(=O)[C@@H](NC(=O)c3ccncc3)C3CCCCC3)cc2)C(=O)N[C@H](Cc2ccccn2)C(=O)NCCCCCN1` [Compound 436], the IC50 is 100 to 1000 nM. Next, `O=C1CNC(=O)[C@@H](Cc2ccc(-n3c(C(F)(F)F)nc(Cc4ccccc4Cl)c3OC(=O)C(F)(F)F)cc2)NC(=O)CC2(CCCC2)CC(=O)NCCCCCN1` [Compound 440]: 100 to 1000 nM; `O=C(Cc1ccccc1)N[C@@H](Cc1ccccc1Cl)C(=O)Nc1ccc(C[C@H]2NC(=O)CC3(CCCC3)CC(=O)OCCNCCNC(=O)[C@@H](Cc3ccccc3)NC2=O)cc1` [Compound 444]: under 100 nM. Next, `CN1CCNCCOC(=O)CC2(CCCC2)CC(=O)N[C@H](Cc2ccc(NC(=O)[C@H](Cc3ccccc3Cl)NC(=O)Cc3ccccc3)cc2)C(=O)N[C@H](Cc2ccccc2)C1=O` [Compound 445]: under 100 nM. Take `CN1CCCC/C=C/CNC(=O)[C@@H](Cc2ccc(NC(=O)[C@H](Cc3ccccc3Cl)NC(=O)Cc3ccc(F)cc3)cc2)NC(=O)CC2(CCCC2)CC1=O` [Compound 447]: the IC50 is under 100 nM.

Take `CN1CCCC/C=C/CNC(=O)[C@@H](Cc2ccc(NC(=O)[C@@H](NC(=O)c3cccnc3)C3CCCCC3)cc2)NC(=O)CC2(CCCC2)CC1=O` [Compound 448]: the IC50 was 100 to 1000 nM.

Regarding `O=C1CNC(=O)[C@@H](Cc2ccc(NC(=O)[C@@H](NC(=O)c3cnc4ccccc4c3)C3CCCCC3)cc2)NC(=O)CC2(CCCC2)CC(=O)NCCCCCN1` [Compound 449], the IC50 fell in the range of 100 to 1000 nM. Next, `O=C1CNC(=O)[C@@H](Cc2ccc(NC(=O)[C@@H](NC(=O)c3cncc4ccccc34)C3CCCCC3)cc2)NC(=O)CC2(CCCC2)CC(=O)NCCCCCN1` [Compound 450]: under 100 nM; `O=C1CC2(CCCC2)CC(=O)N[C@H](Cc2ccc(NC(=O)[C@H](Cc3ccccc3Cl)NC(=O)c3cccnc3)cc2)C(=O)N[C@@H](CO)C(=O)NCCCC[C@@H](C(=O)O)N1` [Compound 451]: under 100 nM. Turning to `O=C1CNC(=O)[C@H](Cc2ccc(NC(=O)[C@@H](Cc3ccccc3Cl)NC(=O)Cc3ccccc3)cc2)NC(=O)CC2(CCCC2)CC(=O)NCCCCCN1` [Compound 452], the concentration for half-maximal inhibition (IC50) lay in the range of 1000 to 10000 nM. For `O=C1CNC(=O)[C@H](Cc2ccc(NC(=O)[C@@H](Cc3ccccc3Cl)NC(=O)Cc3ccccc3)cc2)NC(=O)CC2(CCCC2)CC(=O)N[C@@H](C(=O)O)CCCCN1` [Compound 454], the IC50 lay within 1000 to 10000 nM. Next, `CC(=O)N[C@@H](Cc1ccccc1Cl)C(=O)Nc1ccc(C[C@H]2NC(=O)CC3(CCCC3)CC(=O)N[C@H](C(=O)O)CCCCNC2=O)cc1` [Compound 456]: 100 to 1000 nM.

On to `O=C1CC2(CCCC2)CC(=O)N[C@H](Cc2ccc(NC(=O)[C@@H](NC(=O)c3cccnc3)C3CCCCC3)cc2)C(=O)NCC#CCCCCCN1` [Compound 458], for which the IC50 lay within 1000 to 10000 nM. Next, `COC(=O)[C@@H]1CCCCNC(=O)CNC(=O)[C@@H](Cc2ccc(NC(=O)[C@H](Cc3ccccc3Cl)NC(=O)NCc3ccccc3)cc2)NC(=O)CC2(CCCC2)CC(=O)N1` [Compound 459]: under 100 nM; `O=C1CC2(CCCC2)CC(=O)N[C@H](Cc2ccc(NC(=O)[C@H](Cc3ccccc3Cl)NC(=O)Cc3ccc(F)cc3)cc2)C(=O)NCCCC[C@@H](C(=O)O)N1` [Compound 460]: under 100 nM; `O=C1CC2(CCCC2)CC(=O)N[C@H](Cc2ccc(NC(=O)[C@H](Cc3ccccc3Cl)NC(=O)Cc3cccc(O)c3)cc2)C(=O)NCCCC[C@@H](C(=O)O)N1` [Compound 461]: under 100 nM. Next, `CN1CCCCCNC(=O)[C@@H](C(C)(C)C)NC(=O)[C@@H](Cc2ccc(NC(=O)[C@H](Cc3ccccc3Cl)NC(=O)Cc3cccc(O)c3)cc2)NC(=O)CC2(CCCC2)CC1=O` [Compound 462]: under 100 nM; `O=C1CC2(CCCC2)CC(=O)N[C@H](Cc2ccc(NC(=O)[C@H](Cc3ccccc3Cl)NC(=O)NCc3ccccc3)cc2)C(=O)NCCOCCOCCN1` [Compound 463]: under 100 nM; `CNC(=O)N[C@@H](Cc1ccccc1Cl)C(=O)Nc1ccc(C[C@H]2NC(=O)CC3(CCCC3)CC(=O)NCCOCCOCCNC2=O)cc1` [Compound 464]: under 100 nM.

On to `O=C1CC2(CCCC2)CC(=O)N[C@H](Cc2ccc(NC(=O)[C@H](Cc3ccccc3Cl)NC(=O)Cc3cccc(O)c3)cc2)C(=O)NCCNCCN1` [Compound 466], for which the IC50 is under 100 nM. Next, `CN1CCNC(=O)CC2(CCCC2)CC(=O)N[C@H](Cc2ccc(NC(=O)[C@H](Cc3ccccc3Cl)NC(=O)Cc3cccc(O)c3)cc2)C(=O)NCC1` [Compound 467]: under 100 nM; `CC(=O)N[C@@H](Cc1ccccc1Cl)C(=O)Nc1ccc(C[C@H]2NC(=O)CC3(CCCC3)CC(=O)NCCCCCNC(=O)[C@@H](C)NC2=O)cc1` [Compound 468]: under 100 nM. For `CC(C)(C)[C@H]1NC(=O)[C@@H](Cc2ccc(NC(=O)[C@H](Cc3ccccc3Cl)NC(=O)C3(c4ccc(F)cc4)CC3)cc2)NC(=O)CC2(CCCC2)CC(=O)NCCCCCNC1=O` [Compound 471], the IC50 is 100 to 1000 nM. Next, `O=C(O)CC[C@H]1NC(=O)[C@@H](Cc2ccc(NC(=O)[C@H](Cc3ccccc3Cl)NC(=O)C3(c4ccc(F)cc4)CC3)cc2)NC(=O)CC2(CCCC2)CC(=O)NCCCCCNC1=O` [Compound 472]: under 100 nM. Next, `CN1C(=O)CC2(CCCC2)CC(=O)NCCOCCOCCNC(=O)[C@H]1Cc1ccc(NC(=O)[C@H](Cc2ccccc2Cl)NC(=O)Cc2ccc(F)cc2)cc1` [Compound 477]: under 100 nM. Next, `O=C1CC2(CCCC2)CC(=O)N[C@H](Cc2ccc(NC(=O)[C@@H](NC(=O)Cc3cccc(O)c3)c3ccccc3)cc2)C(=O)NCCOCCOCCN1` [Compound 481]: 100 to 1000 nM; `O=C1CC2(CCCC2)CC(=O)N[C@H](Cc2ccc(NC(=O)[C@H](Cc3ccccc3Cl)NC(=O)C3(c4ccc(F)cc4)CC3)cc2)C(=O)N[C@H](CO)C(=O)NCCCCCN1` [Compound 482]: under 100 nM; `C[C@H]1NC(=O)[C@@H](Cc2ccc(NC(=O)[C@H](Cc3ccccc3Cl)NC(=O)Cc3cccc(O)c3)cc2)NC(=O)CC2(CCCC2)CC(=O)NCCCCCNC1=O` [Compound 483]: under 100 nM. On to `CN1CCNC(=O)CC2(CCCC2)CC(=O)N[C@H](Cc2ccc(NC(=O)[C@H](Cc3ccccc3Cl)NC(=O)NCc3ccccc3)cc2)C(=O)NCC1` [Compound 485], for which the IC50 was under 100 nM. Next, `C[C@H]1NC(=O)[C@@H](Cc2ccc(NC(=O)[C@H](Cc3ccccc3Cl)NC(=O)Cc3ccc(F)cc3)cc2)N(C)C(=O)CC2(CCCC2)CC(=O)NCCCCCNC1=O` [Compound 486]: under 100 nM; `C[C@H]1NC(=O)[C@@H](Cc2ccc(NC(=O)[C@H](Cc3ccccc3Cl)NC(=O)Cc3ccc(F)cc3)cc2)N(C)C(=O)CC2(CCCC2)CC(=O)N(C)CCCCCN(C)C1=O` [Compound 489]: under 100 nM. In the case of `CN1C(=O)CC2(CCCC2)CC(=O)NCCCCCC#CCNC(=O)[C@H]1Cc1ccc(NC(=O)[C@H](Cc2ccccc2Cl)NC(=O)C2(c3ccc(F)cc3)CC2)cc1` [Compound 491], the IC50 lay within 1000 to 10000 nM. Next, `C[C@H]1NC(=O)[C@@H](Cc2cccc(NC(=O)[C@H](Cc3ccccc3Cl)NC(=O)Cc3ccc(F)cc3)c2)NC(=O)CC2(CCCC2)CC(=O)NCCCCCNC1=O` [Compound 492]: 100 to 1000 nM; `Cc1cccc(CC(=O)N[C@@H](Cc2ccccc2Cl)C(=O)Nc2ccc(C[C@H]3NC(=O)CC4(CCCC4)CC(=O)NCCOCCOCCNC3=O)cc2)c1` [Compound 496]: under 100 nM. Next, `CN1C(=O)CC2(CCCC2)CC(=O)NCCCCC#CCNC(=O)[C@H]1Cc1ccc(NC(=O)[C@H](Cc2ccccc2Cl)NC(=O)C2(c3ccc(F)cc3)CC2)cc1` [Compound 498]: 1000 to 10000 nM; `O=C(Cc1ccc(F)cc1)N[C@@H](Cc1ccccc1Cl)C(=O)Nc1ccc(C[C@H]2NC(=O)CC3(CCCC3)CC(=O)OCCCC/C=C/CNC2=O)cc1` [Compound 500]: under 100 nM.
